From patent publication US11040981B2, “Pyrrolotriazine compounds and methods of inhibiting TAM kinases” (Syros Pharmaceuticals, Inc., priority 2017, dated 2021)

Tests used:
MERTK = target: T1, MERTK (Homo sapiens, UniProt Q12866); test: TR-FRET kinase activity assay, MERTK; type: biochemical; conditions: for IC50: TR-FRET activity assay, ATP at Km, 60 minutes, read-out: Mer IC50
T1 sequence (Q12866 21-999): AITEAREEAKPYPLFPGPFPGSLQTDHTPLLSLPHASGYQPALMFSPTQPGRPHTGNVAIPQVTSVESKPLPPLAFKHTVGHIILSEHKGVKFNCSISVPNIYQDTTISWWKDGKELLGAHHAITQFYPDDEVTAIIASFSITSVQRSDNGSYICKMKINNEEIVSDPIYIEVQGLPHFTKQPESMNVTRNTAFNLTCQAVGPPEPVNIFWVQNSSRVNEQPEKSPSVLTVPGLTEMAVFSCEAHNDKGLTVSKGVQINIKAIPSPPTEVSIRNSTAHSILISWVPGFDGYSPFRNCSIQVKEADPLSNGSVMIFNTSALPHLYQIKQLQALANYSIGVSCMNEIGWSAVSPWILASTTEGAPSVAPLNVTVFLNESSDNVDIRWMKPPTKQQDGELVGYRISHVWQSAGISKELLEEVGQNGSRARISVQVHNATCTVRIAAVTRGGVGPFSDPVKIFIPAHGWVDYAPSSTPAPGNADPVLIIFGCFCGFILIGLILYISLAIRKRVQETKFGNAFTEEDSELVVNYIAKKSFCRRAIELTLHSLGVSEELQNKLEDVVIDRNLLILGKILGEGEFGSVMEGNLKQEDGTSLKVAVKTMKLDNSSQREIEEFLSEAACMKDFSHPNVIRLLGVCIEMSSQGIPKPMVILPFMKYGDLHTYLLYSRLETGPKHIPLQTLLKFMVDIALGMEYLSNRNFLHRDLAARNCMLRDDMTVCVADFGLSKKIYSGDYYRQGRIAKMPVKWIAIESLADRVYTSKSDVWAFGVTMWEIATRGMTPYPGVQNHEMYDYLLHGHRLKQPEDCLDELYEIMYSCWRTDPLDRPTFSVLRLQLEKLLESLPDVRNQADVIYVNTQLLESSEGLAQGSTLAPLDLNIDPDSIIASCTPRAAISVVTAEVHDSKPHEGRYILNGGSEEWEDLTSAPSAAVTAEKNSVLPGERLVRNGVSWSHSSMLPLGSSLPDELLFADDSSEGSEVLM
How it was run: (§1)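 IC50 reflects the drop in TR-FRET between Eu anti-phosphotyrosine antibody and labelled peptide after a 60-minute room-temperature reaction. Buffer was 50 mM HEPES pH 7.5 with 10 mM MgCl2, 1 mM EGTA, 0.01% Brij 35 and 1 mM DTT, with ATP at Km per enzyme and EDTA quench.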

TYRO3 = target: T2, TYRO3 (Homo sapiens, UniProt Q06418); test: TR-FRET kinase activity assay, TYRO3; type: biochemical; conditions: ATP at Km, 60 minutes
T2 sequence (Q06418 41-890): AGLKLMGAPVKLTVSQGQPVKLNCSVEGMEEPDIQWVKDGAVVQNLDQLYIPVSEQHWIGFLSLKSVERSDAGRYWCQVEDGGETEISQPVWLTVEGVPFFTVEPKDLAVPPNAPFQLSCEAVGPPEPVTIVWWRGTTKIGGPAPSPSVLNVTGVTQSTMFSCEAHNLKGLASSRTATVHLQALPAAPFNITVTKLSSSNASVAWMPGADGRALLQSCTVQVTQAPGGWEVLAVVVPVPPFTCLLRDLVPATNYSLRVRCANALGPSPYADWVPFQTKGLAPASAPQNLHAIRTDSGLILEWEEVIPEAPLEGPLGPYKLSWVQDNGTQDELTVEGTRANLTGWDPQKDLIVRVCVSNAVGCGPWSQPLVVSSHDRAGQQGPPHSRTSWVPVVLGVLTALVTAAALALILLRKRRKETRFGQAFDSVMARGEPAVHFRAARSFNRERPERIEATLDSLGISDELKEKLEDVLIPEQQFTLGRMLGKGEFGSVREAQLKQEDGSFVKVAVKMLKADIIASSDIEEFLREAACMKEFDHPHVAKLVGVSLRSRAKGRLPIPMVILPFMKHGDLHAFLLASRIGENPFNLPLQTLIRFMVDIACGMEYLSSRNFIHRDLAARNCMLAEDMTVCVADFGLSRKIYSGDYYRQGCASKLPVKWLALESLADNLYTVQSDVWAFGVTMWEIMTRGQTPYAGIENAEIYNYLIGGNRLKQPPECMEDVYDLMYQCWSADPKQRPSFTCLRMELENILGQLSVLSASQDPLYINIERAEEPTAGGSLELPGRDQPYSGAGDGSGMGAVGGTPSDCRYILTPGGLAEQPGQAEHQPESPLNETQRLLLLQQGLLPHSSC
How it was run: as §1

[1] = ratio of Mer to FLT3: FLT3 IC50/Mer IC50
[2] = ratio calculated as FLT3 IC50/Mer IC50

Row | SMILES | IC50 (MERTK) | FLT3/Mer ratio (FLT3 IC50/Mer IC50) (MERTK; [1]) | IC50 (TYRO3) | FLT3/Mer ratio (FLT3 IC50/Mer IC50) (MERTK; [2])
1 | CCCCC[C@H](C)Nc1ncc2c(-c3ccc(S(=O)(=O)N4CCOCC4)cc3)cc([C@H]3CC[C@H](O)CC3)n2n1 [Compound 102, (1S,4r)-4-(2-((S)-heptan-2-ylamino)-5-(4-(morpholinosulfonyl)phenyl)pyrrolo[2,1-f][1,2,4]triazin-7-yl)cyclohexanol] | ≤ 100 nM | ++ (“++” represents a ratio of between 10 and 100) | ≤ 100 nM | –
2 | COC[C@H](C)Nc1ncc2c(-c3ccnc(N4CCC(C)(O)C4)c3)cc(C3CCC(O)CC3)n2n1 (stereo partly drawn) [Compound 633] | ≤ 100 nM | – | ≤ 100 nM | +++ (“+++” represents a ratio of >100)
3 | COC[C@H](C)Nc1ncc2c(-c3cnn(CC(=O)NS(C)(=O)=O)c3)cc([C@H]3CC[C@H](O)CC3)n2n1 [Compound 174] | ≤ 100 nM | +++ (“+++” represents a ratio of >100) | ≤ 100 nM | –
4 | COCC(C)Nc1ncc2c(-c3ccc(C4(C(=O)N5CCS(=O)(=O)CC5)CC4)cc3)cc(C3CCC(O)CC3)n2n1 (stereo not drawn) [Compound 172] | ≤ 100 nM | ++ (“++” represents a ratio of between 10 and 100) | ≤ 100 nM | –
5 | COC[C@H](C)Nc1ncc2c(-c3cnn(CC(=O)N4CCOCC4)c3)cc([C@H]3CC[C@H](O)CC3)n2n1 [Compound 162] | ≤ 100 nM | +++ (“+++” represents a ratio of >100) | ≤ 100 nM | –
6 | C[C@@H](COC(F)F)Nc1ncc2c(-c3cnn(C(C)(C)C(=O)N4CC5(COC5)C4)c3)cc([C@H]3CC[C@H](O)CC3)n2n1 [Compound 613] | ≤ 100 nM | – | ≤ 100 nM | +++ (“+++” represents a ratio of >100)
7 | COCC(C)Nc1ncc2c(-c3cccc(C(C)N4CCCC4)c3)cc(C3CCC(O)CC3)n2n1 (stereo not drawn) [Compound 158] | ≤ 100 nM | +++ (“+++” represents a ratio of >100) | ≤ 100 nM | –
8 | COC[C@H](C)Nc1ncc2c(-c3cnn(C(C)(C)c4nnc(C)s4)c3)cc([C@H]3CC[C@H](O)CC3)n2n1 [Compound 625] | ≤ 100 nM | – | ≤ 100 nM | +++ (“+++” represents a ratio of >100)
9 | COC[C@H](C)Nc1ncc2c(-c3ccnc(C(C)(C)O)c3)cc([C@H]3CC[C@H](O)CC3)n2n1 [Compound 619] | ≤ 100 nM | – | ≤ 100 nM | +++ (“+++” represents a ratio of >100)
10 | COCC1(Nc2ncc3c(-c4ccc(CN5CCN(C)CC5)cc4)cc(C4CCC(O)CC4)n3n2)CC1 (stereo not drawn) [Compound 149] | ≤ 100 nM | ++ (“++” represents a ratio of between 10 and 100) | ≤ 100 nM | –
11 | COC[C@H](C)Nc1ncc2c(C3=CC4CCC(C3)N4)cc([C@H]3CC[C@H](O)CC3)n2n1 (stereo partly drawn) [Compound 170] | ≤ 100 nM | +++ (“+++” represents a ratio of >100) | ≤ 100 nM | –
12 | COC[C@H](C)Nc1ncc2c(-c3ccc(CN4CCOCC4)cc3)cc([C@H]3CC[C@@H](O)CC3)n2n1 [Compound 163, (cis)-4-(2-(((S)-1-methoxypropan-2-yl)amino)-5-(4-(morpholinomethyl)phenyl)pyrrolo[2,1-f][1,2,4]triazin-7-yl)cyclohexanol] | ≤ 100 nM | ++ (“++” represents a ratio of between 10 and 100) | ≤ 100 nM | –
13 | CC(Nc1ncc2c(-c3ccc(CN4CCN(C)CC4)cc3)cc([C@H]3CC[C@H](O)CC3)n2n1)C(F)F (mixture of isomers) [Compound 148] | ≤ 100 nM | +++ (“+++” represents a ratio of >100) | ≤ 100 nM | –
14 | COC[C@H](C)Nc1ncc2c(-c3cnn(C(C)(C)c4nnc([C@H]5CCCO5)o4)c3)cc([C@H]3CC[C@H](O)CC3)n2n1 [Compound 602] | ≤ 100 nM | – | ≤ 100 nM | +++ (“+++” represents a ratio of >100)
15 | COC[C@H](C)Nc1ncc2c([C@H]3CC[C@H](C(=O)N4CCN(C)CC4)CC3)cc([C@H]3CC[C@H](O)CC3)n2n1 [Compound 606] | ≤ 100 nM | – | ≤ 100 nM | +++ (“+++” represents a ratio of >100)
16 | COC[C@H](C)Nc1ncc2c(N3CCCC3=O)cc([C@H]3CC[C@H](O)CC3)n2n1 [Compound 177] | ≤ 100 nM | +++ (“+++” represents a ratio of >100) | 100 to 1000 nM | –
17 | COC[C@H](C)Nc1ncc2c(-c3cnn(C)c3)cc([C@H]3CC[C@H](O)CC3)n2n1 [Compound 152] | ≤ 100 nM | +++ (“+++” represents a ratio of >100) | ≤ 100 nM | –
18 | COC[C@H](C)Nc1ncc2c(-c3cnn(C4COC4)c3)cc([C@H]3CCc4[nH]ncc4C3)n2n1 [Compound 624] | ≤ 100 nM | – | ≤ 100 nM | ++ (“++” represents a ratio of between 10 and 100)
19 | COC[C@H](C)Nc1ncc2c(-c3cnn(CCN4CCOCC4)c3)cc([C@H]3CC[C@H](O)CC3)n2n1 [Compound 153] | ≤ 100 nM | +++ (“+++” represents a ratio of >100) | ≤ 100 nM | –
20 | COC[C@H](C)Nc1ncc2c(-c3cnn(C(C)(C)c4ncc(C)o4)c3)cc(C3CCC(O)CC3)n2n1 (stereo partly drawn) [Compound 628] | ≤ 100 nM | – | ≤ 100 nM | +++ (“+++” represents a ratio of >100)
21 | COC[C@H](C)Nc1ncc2c(-c3cnn(C(C)(C)c4nnc(N5CCOCC5)o4)c3)cc(C3CCC(O)CC3)n2n1 (stereo partly drawn) [Compound 631] | ≤ 100 nM | – | ≤ 100 nM | +++ (“+++” represents a ratio of >100)
22 | [2H]C([2H])([2H])OCC(C)Nc1ncc2c(-c3ccnc(N4CCOCC4)c3)cc(C3CCC(O)CC3)n2n1 (stereo not drawn) [Compound 629] | ≤ 100 nM | – | ≤ 100 nM | +++ (“+++” represents a ratio of >100)
23 | COC[C@H](C)Nc1ncc2c(-c3cnn(C(C)(C)c4nnc([C@@H]5CCCO5)o4)c3)cc([C@H]3CC[C@H](O)CC3)n2n1 [Compound 601] | ≤ 100 nM | – | ≤ 100 nM | +++ (“+++” represents a ratio of >100)
24 | COC[C@H](C)Nc1ncc2c(-c3ccc(CN4CCN(C(C)=O)CC4)cc3)cc([C@H]3CC[C@H](O)CC3)n2n1 [Compound 150] | ≤ 100 nM | ++ (“++” represents a ratio of between 10 and 100) | ≤ 100 nM | –
25 | COC[C@H](C)Nc1ncc2c(-c3cnn(C(C)(C)c4nnc(C(F)F)o4)c3)cc([C@H]3CC[C@H](O)CC3)n2n1 [Compound 599] | ≤ 100 nM | – | ≤ 100 nM | +++ (“+++” represents a ratio of >100)
26 | COC[C@H](C)Nc1ncc2c(-c3ccnc(C)c3)cc([C@H]3CC[C@@H](O)CC3)n2n1 [Compound 183] | ≤ 100 nM | +++ (“+++” represents a ratio of >100) | ≤ 100 nM | –
